Like-named read-outs stand apart in the source and are kept apart here.
Legend:
[1] = amide bond, 24-membered ring, 3 steps
[2] = target: T1, RyR2 (Mus musculus, UniProt E9Q401); conditions: 25 μM drug, normalized to vehicle (DMSO), mean ± standard deviation, ref Johnston et al. ACS Med. Chem. Lett., 2022, 13(11), 1755–1762, cited from earlier work; for Normalized Calcium Leak: CSV supplement, ent-verticilide and Series 1; for Calcium spark Amplitude (normalized to vehicle) / Calcium spark Leak (normalized to vehicle) / Calcium spark Mass (normalized to vehicle) / Calcium spark Frequency (normalized to vehicle): Supplement Table 1; for Calcium spark Amplitude (normalized to vehicle) / Calcium spark Leak (normalized to vehicle) / Calcium spark Mass (normalized to vehicle): permeabilized murine cardiomyocytes; for Calcium spark Frequency (normalized to vehicle): permeabilized murine left ventricular myocytes, 15 min incubation
T1 construct: ventricular cardiomyocytes were isolated from C57Bl/6J mice, adhered to laminin-coated glass bottom culture dishes, permeabilized with saponin; endogenous in cells; host or cells: left ventricular cardiomyocytes freshly isolated from C57BL/6J mice, saponin-permeabilized
Method: Supplement jm4c00923_si_002.csv, table | column: Normalized Calcium Leak || page 10: Johnston et al. Supporting Information mouse variability provided by Sikkel et al.5 Bonferroni-adjusted P values are reported in the figure legends. A cutoff value of 0.05 was used as the threshold to reject the null hypothesis. Safety: No unexpected or unusually high safety hazards were encountered. Biological Experiment Data: Calcium spark parameters For all series, assay is run with 25 μM solution of drug. Values are normalized to the vehicle (DMSO) condition and reported as mean ± standard deviation. Statistical comparisons were made using a hierarchical clustering model with Bonf ...

[3] = the molecule shown is the open-chain precursor
[4] = the molecule shown is the open-chain precursor, PyBOP

T1 sequence (E9Q401 whole entry): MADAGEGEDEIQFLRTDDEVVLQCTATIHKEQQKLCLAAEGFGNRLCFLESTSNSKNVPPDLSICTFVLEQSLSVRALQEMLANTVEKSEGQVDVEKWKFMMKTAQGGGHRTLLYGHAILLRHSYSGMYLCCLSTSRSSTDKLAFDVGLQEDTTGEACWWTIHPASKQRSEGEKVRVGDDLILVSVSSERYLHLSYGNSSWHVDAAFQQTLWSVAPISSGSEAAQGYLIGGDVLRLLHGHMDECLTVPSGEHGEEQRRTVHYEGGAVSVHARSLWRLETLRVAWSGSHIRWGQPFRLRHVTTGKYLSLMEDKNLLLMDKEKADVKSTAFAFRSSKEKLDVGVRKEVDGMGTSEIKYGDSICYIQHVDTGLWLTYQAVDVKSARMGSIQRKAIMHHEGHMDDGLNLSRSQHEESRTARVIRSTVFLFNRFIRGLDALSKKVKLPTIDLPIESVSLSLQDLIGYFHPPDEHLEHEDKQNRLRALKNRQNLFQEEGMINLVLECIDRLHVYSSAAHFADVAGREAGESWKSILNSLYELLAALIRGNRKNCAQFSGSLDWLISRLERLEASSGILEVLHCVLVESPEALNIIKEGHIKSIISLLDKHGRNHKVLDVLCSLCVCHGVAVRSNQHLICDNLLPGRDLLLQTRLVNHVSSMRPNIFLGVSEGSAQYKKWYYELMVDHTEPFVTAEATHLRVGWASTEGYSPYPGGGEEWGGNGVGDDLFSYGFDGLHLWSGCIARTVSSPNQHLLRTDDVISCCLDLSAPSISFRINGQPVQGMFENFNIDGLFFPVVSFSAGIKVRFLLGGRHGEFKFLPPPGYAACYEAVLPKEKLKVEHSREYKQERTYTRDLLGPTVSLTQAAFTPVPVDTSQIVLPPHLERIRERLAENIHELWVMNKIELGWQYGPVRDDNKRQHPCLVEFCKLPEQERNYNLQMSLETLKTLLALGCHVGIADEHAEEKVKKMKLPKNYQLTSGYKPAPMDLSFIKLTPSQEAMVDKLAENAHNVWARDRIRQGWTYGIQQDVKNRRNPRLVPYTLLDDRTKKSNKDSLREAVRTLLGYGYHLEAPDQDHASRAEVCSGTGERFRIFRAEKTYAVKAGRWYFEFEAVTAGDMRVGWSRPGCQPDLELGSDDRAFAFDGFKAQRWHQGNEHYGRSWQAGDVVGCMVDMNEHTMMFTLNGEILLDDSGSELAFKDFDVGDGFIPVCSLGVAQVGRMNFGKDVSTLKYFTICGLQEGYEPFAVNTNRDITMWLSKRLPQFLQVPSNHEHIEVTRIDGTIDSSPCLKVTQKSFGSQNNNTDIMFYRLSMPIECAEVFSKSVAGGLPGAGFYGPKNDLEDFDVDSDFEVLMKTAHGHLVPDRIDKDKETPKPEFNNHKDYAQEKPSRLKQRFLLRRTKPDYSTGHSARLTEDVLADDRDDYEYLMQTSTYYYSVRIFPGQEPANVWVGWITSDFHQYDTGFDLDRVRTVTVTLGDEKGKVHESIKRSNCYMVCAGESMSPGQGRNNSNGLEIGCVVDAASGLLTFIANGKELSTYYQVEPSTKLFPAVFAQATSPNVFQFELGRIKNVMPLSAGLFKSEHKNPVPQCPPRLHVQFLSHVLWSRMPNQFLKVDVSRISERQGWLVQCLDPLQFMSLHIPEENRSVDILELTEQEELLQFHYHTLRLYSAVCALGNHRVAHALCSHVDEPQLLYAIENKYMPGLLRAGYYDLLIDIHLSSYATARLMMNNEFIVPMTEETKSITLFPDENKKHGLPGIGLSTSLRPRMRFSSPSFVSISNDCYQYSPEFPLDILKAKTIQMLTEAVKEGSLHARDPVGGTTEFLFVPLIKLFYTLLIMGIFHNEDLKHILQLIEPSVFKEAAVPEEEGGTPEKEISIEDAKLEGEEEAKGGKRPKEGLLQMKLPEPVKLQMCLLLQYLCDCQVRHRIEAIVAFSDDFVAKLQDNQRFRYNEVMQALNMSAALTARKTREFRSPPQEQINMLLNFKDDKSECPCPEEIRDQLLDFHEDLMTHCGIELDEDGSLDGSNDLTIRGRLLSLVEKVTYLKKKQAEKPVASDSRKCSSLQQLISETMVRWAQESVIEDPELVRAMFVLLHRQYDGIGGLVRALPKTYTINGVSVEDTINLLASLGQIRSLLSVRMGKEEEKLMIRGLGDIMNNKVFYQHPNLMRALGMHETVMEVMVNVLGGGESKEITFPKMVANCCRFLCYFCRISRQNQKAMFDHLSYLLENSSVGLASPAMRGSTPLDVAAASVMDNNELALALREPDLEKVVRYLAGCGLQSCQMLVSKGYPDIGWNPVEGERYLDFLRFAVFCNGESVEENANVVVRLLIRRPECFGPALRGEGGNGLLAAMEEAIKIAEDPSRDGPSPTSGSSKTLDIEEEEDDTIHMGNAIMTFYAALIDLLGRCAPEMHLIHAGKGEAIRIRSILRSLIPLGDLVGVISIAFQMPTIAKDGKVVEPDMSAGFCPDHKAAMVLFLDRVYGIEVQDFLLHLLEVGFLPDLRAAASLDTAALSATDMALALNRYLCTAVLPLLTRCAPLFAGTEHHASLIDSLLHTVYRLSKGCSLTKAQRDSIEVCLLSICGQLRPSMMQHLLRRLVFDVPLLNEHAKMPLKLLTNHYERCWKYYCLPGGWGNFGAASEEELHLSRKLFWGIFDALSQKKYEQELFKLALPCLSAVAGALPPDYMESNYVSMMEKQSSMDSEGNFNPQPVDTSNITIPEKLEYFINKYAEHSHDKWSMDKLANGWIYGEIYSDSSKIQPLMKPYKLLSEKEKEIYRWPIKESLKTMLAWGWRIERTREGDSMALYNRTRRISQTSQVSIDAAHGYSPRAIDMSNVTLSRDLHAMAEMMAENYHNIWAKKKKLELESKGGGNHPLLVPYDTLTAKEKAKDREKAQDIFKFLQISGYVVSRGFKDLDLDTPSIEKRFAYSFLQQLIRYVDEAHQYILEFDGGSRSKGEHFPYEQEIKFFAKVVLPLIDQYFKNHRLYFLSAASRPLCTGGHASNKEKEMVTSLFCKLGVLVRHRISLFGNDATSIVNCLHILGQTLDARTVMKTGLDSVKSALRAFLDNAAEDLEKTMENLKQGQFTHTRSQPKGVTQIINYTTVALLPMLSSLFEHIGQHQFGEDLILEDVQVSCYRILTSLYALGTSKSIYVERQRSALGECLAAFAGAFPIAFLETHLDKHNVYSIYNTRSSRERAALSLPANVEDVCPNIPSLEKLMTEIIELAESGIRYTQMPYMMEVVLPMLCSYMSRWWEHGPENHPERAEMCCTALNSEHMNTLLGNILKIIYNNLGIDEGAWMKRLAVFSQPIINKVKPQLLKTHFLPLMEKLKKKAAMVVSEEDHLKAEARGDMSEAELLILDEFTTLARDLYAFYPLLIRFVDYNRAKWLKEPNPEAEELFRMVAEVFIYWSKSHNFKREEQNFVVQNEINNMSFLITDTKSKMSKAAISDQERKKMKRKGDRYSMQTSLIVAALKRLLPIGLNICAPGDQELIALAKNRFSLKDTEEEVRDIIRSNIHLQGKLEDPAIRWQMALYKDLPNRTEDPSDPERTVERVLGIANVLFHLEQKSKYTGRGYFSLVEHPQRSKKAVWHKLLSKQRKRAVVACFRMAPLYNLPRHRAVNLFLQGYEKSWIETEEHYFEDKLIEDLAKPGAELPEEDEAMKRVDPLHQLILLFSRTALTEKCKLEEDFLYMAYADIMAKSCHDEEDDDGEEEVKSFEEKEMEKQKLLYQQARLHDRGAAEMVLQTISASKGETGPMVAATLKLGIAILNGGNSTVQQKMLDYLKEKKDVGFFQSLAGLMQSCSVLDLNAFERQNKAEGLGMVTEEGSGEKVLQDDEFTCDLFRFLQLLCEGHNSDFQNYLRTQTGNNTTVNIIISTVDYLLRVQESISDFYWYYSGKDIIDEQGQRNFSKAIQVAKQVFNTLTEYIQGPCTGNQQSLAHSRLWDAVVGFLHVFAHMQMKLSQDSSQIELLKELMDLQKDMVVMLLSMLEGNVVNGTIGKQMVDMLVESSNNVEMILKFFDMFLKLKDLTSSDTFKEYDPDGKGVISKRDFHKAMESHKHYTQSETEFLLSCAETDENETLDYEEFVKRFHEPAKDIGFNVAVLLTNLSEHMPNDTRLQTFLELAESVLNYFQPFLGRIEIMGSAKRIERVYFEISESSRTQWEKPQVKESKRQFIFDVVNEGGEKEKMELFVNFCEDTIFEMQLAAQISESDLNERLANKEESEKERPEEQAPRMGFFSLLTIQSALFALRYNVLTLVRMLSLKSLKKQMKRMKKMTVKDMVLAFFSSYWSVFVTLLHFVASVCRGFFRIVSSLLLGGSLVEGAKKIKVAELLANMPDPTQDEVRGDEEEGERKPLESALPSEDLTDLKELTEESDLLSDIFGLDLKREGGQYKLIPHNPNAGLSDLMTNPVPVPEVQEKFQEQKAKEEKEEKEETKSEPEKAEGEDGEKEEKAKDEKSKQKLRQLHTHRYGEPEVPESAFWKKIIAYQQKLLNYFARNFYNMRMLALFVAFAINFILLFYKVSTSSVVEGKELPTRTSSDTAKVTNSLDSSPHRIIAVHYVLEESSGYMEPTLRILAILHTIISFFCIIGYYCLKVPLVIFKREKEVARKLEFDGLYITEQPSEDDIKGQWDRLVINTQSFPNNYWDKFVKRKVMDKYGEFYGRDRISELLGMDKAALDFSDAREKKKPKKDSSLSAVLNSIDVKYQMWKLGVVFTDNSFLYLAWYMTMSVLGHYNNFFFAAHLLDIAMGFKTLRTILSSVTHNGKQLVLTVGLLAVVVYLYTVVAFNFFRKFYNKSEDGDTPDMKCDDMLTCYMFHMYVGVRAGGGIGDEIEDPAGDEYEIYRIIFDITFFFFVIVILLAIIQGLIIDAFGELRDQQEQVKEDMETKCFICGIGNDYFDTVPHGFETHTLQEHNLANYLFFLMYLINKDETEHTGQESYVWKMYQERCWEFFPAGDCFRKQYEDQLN

Substance	ring closure, yield after HPLC [1, 3]	also measured
(3R,6S,9R,12S,15R,18S,21R,24S)-3,4,9,10,15,16,19,21,22-nonamethyl-6,12,18,24-tetrapentyl-1,7,13-trioxa-4,10,16,19,22-pentaazacyclotetracosan-2,5,8,11,14,17,20,23-octaone		ring closure, yield after HPLC ([1]; PyBOP/DIPEA, DMF, 3.6 mM): 5.1%
(3R,6S,9R,12S,15R,18S,21R,24S)-3,4,9,10,15,16,21-heptamethyl-6,12,18,24-tetrapentyl-1,7,13,19-tetraoxa-4,10,16,22-tetraazacyclotetracosan-2,5,8,11,14,17,20,23-octaone [1.1]		Normalized Calcium Leak [2]: 1.02 ± 0.71; Calcium spark Amplitude (normalized to vehicle) [2]: 1.01 ± 0.25; Calcium spark Leak (normalized to vehicle) [2]: 1.02 ± 0.71; Calcium spark Mass (normalized to vehicle) [2]: 0.98 ± 0.59; Calcium spark Frequency (normalized to vehicle) [2]: 1.03 ± 0.27
(3R,6S,9R,12S,15R,18S,21R,24S)-3,4,9,15,16,21-hexamethyl-6,12,18,24-tetrapentyl-1,7,13,19-tetraoxa-4,10,16,22-tetraazacyclotetracosan-2,5,8,11,14,17,20,23-octaone [1.3]		Normalized Calcium Leak [2]: 0.90 ± 0.60; Calcium spark Amplitude (normalized to vehicle) [2]: 1.04 ± 0.28; Calcium spark Leak (normalized to vehicle) [2]: 0.90 ± 0.60; Calcium spark Mass (normalized to vehicle) [2]: 0.91 ± 0.48; Calcium spark Frequency (normalized to vehicle) [2]: 0.96 ± 0.29
(3R,6S,9R,12S,15R,18S,21R,24S)-3,4,9,15,21-pentamethyl-6,12,18,24-tetrapentyl-1,7,13,19-tetraoxa-4,10,16,22-tetraazacyclotetracosan-2,5,8,11,14,17,20,23-octaone [1.4]		Normalized Calcium Leak [2]: 0.77 ± 0.53; Calcium spark Amplitude (normalized to vehicle) [2]: 0.93 ± 0.24; Calcium spark Leak (normalized to vehicle) [2]: 0.77 ± 0.53; Calcium spark Mass (normalized to vehicle) [2]: 0.84 ± 0.32; Calcium spark Frequency (normalized to vehicle) [2]: 0.90 ± 0.36
(3S,6R,9S,12R,15S,18R,21S,24R)-1,6,7,12,13,18,19,24-Octamethyl-3,9,15,21-tetrapentyl-1,4,7,10,13,16,19,22-octaazacyclotetracosan-2,5,8,11,14,17,20,23-octaone		ring closure, yield after HPLC ([1]; PyBOP/DIEA, DMF, 4.6 mM, 0.0 °C): 11%
H-dAla-Hhp-dAla-Hhp-dAla-Hhp-dAla-Hhp-OH	12%	
H-dAla-Hhp-dAla-Hhp-dMeAla-Hhp-dMeAla-Hhp-OH?		ring closure, yield after HPLC [1, 4]: 11%
H-dAla-Hhp-dAla-MeAhp-dAla-Hhp-dAla-MeAhp-OH?	6%	
H-dAla-Hhp-dMeAla-Hhp-dMeAla-Hhp-dMeAla-Hhp-OH		ring closure, yield after HPLC [1, 4]: 18%
H-dAla-MeAhp-dAla-MeAhp-dAla-MeAhp-dAla-MeAhp-OH	7%	
H-dAla-MeAhp-dAla-MeAhp-dMeAla-MeAhp-dMeAla-MeAhp-OH?	8%	
H-dAla-MeAhp-dMeAla-MeAhp-dMeAla-MeAhp-dMeAla-MeAhp-OH?	8%	
H-dMeAla-Ahp-dMeAla-Hhp-dMeAla-Ahp-dMeAla-Hhp-OH	10%	
H-dMeAla-Hhp-dAla-Hhp-dAla-Hhp-dAla-Hhp-OH	23%	
H-dMeAla-Hhp-dMeAla-Ahp-dMeAla-Ahp-dMeAla-Ahp-OH?	7%	
H-dMeAla-Hhp-dMeAla-Hhp-dMeAla-Ahp-dMeAla-Ahp-OH?	7%	
H-dMeAla-Hhp-dMeAla-Hhp-dMeAla-Hhp-dMeAla-Ahp-OH	6%	
H-dMeAla-Hhp-dMeAla-Hhp-dMeAla-MeAhp-dMeAla-MeAhp-OH	4%	
H-dMeAla-MeAhp-dAla-MeAhp-dAla-MeAhp-dAla-MeAhp-OH	5%	
H-dMeAla-MeAhp-dAla-MeAhp-dMeAla-MeAhp-dAla-MeAhp-OH	7%	
H-dMeAla-MeAhp-dMeAla-Ahp-dMeAla-Ahp-dMeAla-Ahp-OH	9%	
H-dMeAla-MeAhp-dMeAla-Ahp-dMeAla-MeAhp-dMeAla-Ahp-OH	7%	
H-dMeAla-MeAhp-dMeAla-Hhp-dMeAla-Hhp-dMeAla-Hhp-OH	5%	
H-dMeAla-MeAhp-dMeAla-MeAhp-dMeAla-Ahp-dMeAla-Ahp-OH?	6%	
H-dMeAla-MeAhp-dMeAla-MeAhp-dMeAla-MeAhp-dMeAla-Ahp-OH?	5%	
H-dMeAla-MeAhp-dMeAla-MeAhp-dMeAla-MeAhp-dMeAla-Hhp-OH?	16%	
H-dMeAla-MeAhp-dMeAla-MeAhp-dMeAla-MeAhp-dMeAla-MeAhp-OH?	8%	

From article PMC11284792, “Backbone-Determined Antiarrhythmic Structure–Activity Relationships for a Mirror Image, Oligomeric Depsipeptide Natural Product” (Journal of Medicinal Chemistry, 2024)
